Measured values taken from ChEMBL document CHEMBL1145867, “Muraymycins, novel peptidoglycan biosynthesis inhibitors: synthesis and SAR of their analogues” (2003).
≈ marks a conversion by molar mass, not a printed value.

Experiments:
Staphylococcus sp. [1] = assay: In vitro antimicrobial activity against Coagulase-negative staphylococcus GC 4538 at 10.7 ug/ml soluble peptidoglycan; type: functional
Enterococcus faecalis [2] = assay: In vitro antimicrobial activity 10.7 ug/ml soluble peptidoglycan; type: functional
Candida albicans = assay: In vitro antimicrobial activity against Candida albicans […] at 32 ug/ml soluble peptidoglycan; type: functional
Enterococcus faecalis [3] = assay: In vitro antimicrobial activity against Enterococcus faecalis GC 842 at 10.7 ug/ml soluble peptidoglycan; type: functional
Staphylococcus aureus [4] = assay: In vitro antimicrobial activity against Staphylococcus aureus GC 4536 at 10.7 ug/mL soluble peptidoglycan; type: functional
Staphylococcus sp. [5] = assay: In vitro antimicrobial activity against CNS GC 4547 at 10.7 ug/ml soluble peptidoglycan; type: functional
Bacteria = assay: In vitro antimicrobial activity against gram-negative organisms (10)
Staphylococcus aureus [6] = assay: In vitro antimicrobial activity against Staphylococcus aureus GC 2216 at 10.7 ug/ml soluble peptidoglycan; type: functional
Staphylococcus aureus [7] = assay: In vitro antimicrobial activity against Staphylococcus aureus GC 1131 at 10.7 ug/ml soluble peptidoglycan; type: functional
Staphylococcus sp. [8] = assay: In vitro antimicrobial activity against CNS GC 4538 at 10.7 ug/ml soluble peptidoglycan; type: functional
Enterococcus faecalis [9] = assay: In vitro antimicrobial activity against Enterococcus faecalis GC 4555 at 10.7 ug/ml soluble peptidoglycan; type: functional

MIC (Staphylococcus sp. [1]): 128 µg/mL (≈ 123 µM)
MIC (Enterococcus faecalis [2]): 64 µg/mL (≈ 61.4 µM)
MIC (Candida albicans): 32 µg/mL (≈ 30.7 µM)
MIC (Enterococcus faecalis [3]): 64 µg/mL (≈ 61.4 µM)
MIC (Staphylococcus aureus [4]): 128 µg/mL (≈ 123 µM)
MIC (Staphylococcus sp. [5]): 128 µg/mL (≈ 123 µM)
MIC (Bacteria): 64 µg/mL (≈ 61.4 µM)
MIC (Staphylococcus aureus [6]): 128 µg/mL (≈ 123 µM)
MIC (Staphylococcus aureus [7]): 128 µg/mL (≈ 123 µM)
MIC (Staphylococcus sp. [8]): 128 µg/mL (≈ 123 µM)
MIC (Enterococcus faecalis [9]): 64 µg/mL (≈ 61.4 µM)
Compound: COc1ccc(Cn2c(=O)ccn([C@@H]3OC([C@@H](O)[C@H](NCCCNC(=O)[C@H](NC(=O)OCc4ccccc4)C(O)C(C)C)C(=O)OC(C)(C)C)[C@@H](O[Si](C)(C)C(C)(C)C)[C@H]3O[Si](C)(C)C(C)(C)C)c2=O)cc1 (stereo partly specified)
